Patent US20090324581A1, “HETEROARYLAMIDE LOWER CARBOXYLIC ACID DERIVATIVE” (Daiichi Sankyo company Limited, priority 2006, published 2009)
Where a name gives a salt, the structure may show the parent alone.

What was measured:
[1] = biological target: T1, human S1P1 (EDG-1) (Homo sapiens, UniProt P21453); experiment: Intracellular calcium flux assay (agonist activity against S1P1 (EDG-1) receptor); assay type: cell-based; settings: CHO cells expressing Gqi5 and human S1P1 (EDG-1), intracellular calcium change
T1 construct: expressed in transfected cells; host or cells: CHO-K1 cells stably expressing HA-Gqi5
Excerpt: The HA-Gqi5 expression plasmid, which had been produced in (2) above, was integrated into CHO-K1 cells by use of a Fugene 6 reagent (product of Roche Diagnostics K.K.), and cells of interest were selected by use of hygromycin. A CHO cell expressing HA-Gqi5 was selected through western blotting employing an anti-HA antibody, and the selected cells were cloned twice.
By use of a human S1P1 (EDG-1) cDNA clone (open biosystems, cDNA collection #4071217) as a template, human S1P1 (EDG-1) DNA was produced through PCR. This PCR product was integrated into pUC118. By means of a site-directed mutagenesis kit (product of STRATAGENE), a plasmid into which DNA having a target sequence (The Journal of Biological Chemistry Vol. 265, No. 16, 9308-9313, 1990) had been integrated was produced.
A human S1P1 (EDG-1) gene (The Journal of Biological Chemistry Vol. 265, No. 16, 9308-9313, 1990) integrated into pUC118 was digested by use of restriction enzymes, and the cut fragment was purified. The fragment was ligated with an expression plasmid pcDNA3.1/mycHisA (product of Invitrogen). The ligation mixture was integrated into E. Coli DH5α, and a positive clone was selected, whereby a S1P1 (EDG-1) expression plasmid was produced.
A S1P1 (EDG-1) expression plasmid was integrated into the CHO cells expressing HA-Gqi5, which had been produced in (3) above, by use of a Fugene 6 reagent (product of Roche Diagnostics K.K.). […] The selected cells were cloned twice.
CHO cells expressing Gqi5 protein, to which human S1P1 (EDG-1) had been introduced and which had been produced in (6) above, were seeded on a 96-well black plate with a transparent bottom surface (2.5×10^4 cell/well) and cultured overnight. The culture was washed once with a serum-free medium, and an assay buffer (calcium assay kit, product of Molecular Devices, 100 μL) containing 2.5 mM probenicid and 0.25% fatty acid-free BSA was added to the washed cells. The mixture was allowed to react at 37° C. for one hour under […] CO2. Separately, each test compound was diluted so as to attain a concentration five times the final test concentration. The diluted liquid (25 μL) was added to each well, and change in intracellular calcium concentration was measured by means of a FLEXstation II (product of Molecular Devices). The change was determined as the difference between the minimum intracellular calcium level and the peak (maximum) value thereof. A sigmoid curve was obtained from the measurements, and an EC50 value was calculated from the curve so as to evaluate agonist activity against an S1P1 (EDG-1) receptor.

[2] = tested on: lymphocytes in peripheral blood; experiment: Decrease in peripheral blood lymphocyte count of mice after administration of each compound; assay type: in vivo; settings: four hours after administration, peripheral blood lymphocyte count vs solvent group; for T/C(%) (3 mg/kg): 3 mg/kg peroral; for T/C(%) (10 mg/kg): 10 mg/kg peroral
Procedure: 2. In Vivo Evaluation of Test Substances (Decrease in Peripheral Blood Lymphocyte Count of Mice after Administration of Each Compound):
There has already been reported that lymphocytes in peripheral blood of mice decrease after administration of an S1P receptor agonist [SCIENCE, 296, 346-349 (2002)]. According to the evaluation method disclosed in the document, test compounds were evaluated.
Four hours after peroral administration, blood (0.5 mL) was collected from each mouse through the posterior vena cava under anesthesia with ether by use of EDTA as an anti-coagulant. The number of lymphocytes in peripheral blood was determined by means of a general hematological tester ADVIA 120 (Bayer Medical). The pharmacological action of each test drug was evaluated as T/C (%) ratio, which is a ratio of average peripheral blood lymphocyte count of a test drug-administered group to that of the solvent-administered group (control group).
(§1) T/C(%)=(average peripheral blood lymphocyte count of a test drug-administered group)/(average peripheral blood lymphocyte count of the solvent-administered group)×100

[3] = tested on: lymphocytes in peripheral blood; experiment: Decrease in peripheral blood lymphocyte count of rats after administration of each compound; assay type: in vivo; settings: rats (female Lewis), four hours after administration, peripheral blood lymphocyte count vs solvent group; for T/C(%) (3 mg/kg): 3 mg/kg peroral; for T/C(%) (10 mg/kg): 10 mg/kg peroral
Procedure: 3. In Vivo Evaluation of Test Substances (Decrease in Peripheral Blood Lymphocyte Count of Rats after Administration of Each Compound):
The effect of administration of an S1P receptor agonist on decrease in peripheral blood lymphocyte counts of rats (female Lewis) was evaluated.
Four hours after peroral administration, blood (0.5 mL) was collected from each rat through the cervical vein under anesthesia with ether by use of EDTA as an anti-coagulant. The number of lymphocytes in peripheral blood and blood cell fractions were determined by means of a general hematological tester ADVIA 120 (Bayer Medical). The action of each test drug on reducing peripheral blood lymphocyte count was evaluated as T/C (%) ratio at the time of blood collection, which is a ratio of average peripheral blood lymphocyte count of a test drug-administered group to that of the solvent-administered group (control group).
as §1

[4] = tested on: production of cytokines such as IL-2; settings: in vitro; cited from earlier work
[5] = tested on: blood lymphocytes; settings: phosphorylated in the living body, acts as S1P receptor agonist; cited from earlier work
[6] = clinically tested in transplant and multiple sclerosis; cited from earlier work

T1 sequence (P21453 whole entry): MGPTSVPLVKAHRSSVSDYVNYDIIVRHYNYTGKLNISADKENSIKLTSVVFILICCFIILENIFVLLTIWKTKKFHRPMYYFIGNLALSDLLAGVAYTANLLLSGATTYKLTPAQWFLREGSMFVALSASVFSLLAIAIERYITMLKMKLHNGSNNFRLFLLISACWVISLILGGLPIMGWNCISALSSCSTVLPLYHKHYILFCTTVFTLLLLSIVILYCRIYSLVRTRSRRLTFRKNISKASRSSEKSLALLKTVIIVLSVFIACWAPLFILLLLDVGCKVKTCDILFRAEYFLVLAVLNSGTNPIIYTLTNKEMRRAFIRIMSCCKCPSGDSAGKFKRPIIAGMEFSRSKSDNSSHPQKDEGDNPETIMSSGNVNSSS

Row | SMILES | EC50 ([1]; Table 2) [nM] | EC50 ([1]; Table 4) [nM] | T/C(%) (3 mg/kg) [2] | T/C(%) (10 mg/kg) [2] | T/C(%) (3 mg/kg) [3] | T/C(%) (10 mg/kg) [3] | other results
1 | N[C@H](CC(=O)O)C(=O)N1CCc2cc(OCc3cc(-c4ccccc4)c(C(F)(F)F)s3)ccc21 [Example 10, (R)-3-Amino-4-oxo-4-[5-[(4-phenyl-5-trifluoromethyl-2-thienyl)methoxy]indolin-1-yl]butyric acid] | 1.3 |  | 21.6 | 16.3 |  |  | 
2 | O=C(O)CCNCC(=O)N1CCc2cc(OCc3cc(-c4ccccc4)c(C(F)(F)F)s3)ccc21 [Example 29, 3-[N-[2-Oxo-2-[5-[(4-phenyl-5-trifluoromethyl-2-thienyl)methoxy]indolin-1-yl]ethyl]amino]propionic acid] | 2.4 |  | 15.5 | 13.9 |  |  | 
3 | CN(CCC(=O)O)CC(=O)N1CCc2cc(OCc3cc(-c4ccccc4)c(C(F)(F)F)s3)ccc21 [Example 30, 3-[N-Methyl-N-[2-oxo-2-[5-[(4-phenyl-5-trifluoromethyl-2-thienyl)methoxy]indolin-1-yl]ethyl]amino]propionic acid] | 2.9 |  | 21.7 | 11.1 |  |  | 
4 | O=C(O)[C@@H]1CCCN(CC(=O)N2CCc3cc(OCc4cc(-c5ccccc5)c(C(F)(F)F)s4)ccc32)C1 [Example 119, 1-[2-Oxo-2-[5-[(4-phenyl-5-trifluoromethyl-2-thienyl)methoxy]indolin-1-yl]ethyl]piperidine-(3R)-carboxylic acid] |  | 6.2 |  |  | 28.7 | 20.7 | 
5 | CCCCCCCCc1ccc(CCC(N)(CO)CO)cc1.Cl [FTY720, 2-amino-2-[2-(4-octylphenyl)ethyl]-1,3-propanediol hydrochloride] |  |  |  |  |  |  | inhibitory action on production of cytokines such as IL-2 [4]: no inhibitory action; reduction in blood lymphocytes [5]: induce reduction in blood lymphocytes; adverse side effect [6]: bradycardia is reported as an adverse side effect

The next lines start with results.

Row | EC50 ([1]; Table 2) [nM] | EC50 ([1]; Table 4) [nM] | SMILES | T/C(%) (3 mg/kg) [2] | T/C(%) (10 mg/kg) [2] | T/C(%) (3 mg/kg) [3] | T/C(%) (10 mg/kg) [3] | other results
6 | 4.4 |  | N[C@H](CC(=O)O)C(=O)N1CCc2cc(OCc3ccc(-c4ccccc4)c(C(F)(F)F)c3)ccc21 [Example 14, (R)-3-Amino-4-oxo-4-[5-[(2-trifluoromethyl-4-biphenyl)methoxy]indolin-1-yl]butyric acid] | 17.0 | 11.1 |  |  | 
7 | 6.3 |  | O=C(O)CCNCC(=O)N1CCc2cc(OCc3ccc(-c4ccccc4)c(C(F)(F)F)c3)ccc21 [Example 31, 3-[N-[2-Oxo-2-[5-[(2-trifluoromethyl-4-biphenyl)methoxy]indolin-1-yl]ethyl]amino]propionic acid] | 30.8 | 19.8 |  |  | 
8 |  | 8.7 | CN[C@H](CC(=O)O)C(=O)N1CCc2cc(OCc3ccc(C4CCCCC4)cc3C(F)(F)F)ccc21 [Example 43, 4-[5-[[4-(Cyclohexyl)-2-(trifluoromethyl)phenyl]methoxy]indolin-1-yl]-(3R)-(methylamino)-4-oxobutyric acid] |  |  | 34.9 | 25.7 | 
9 |  | 4.7 | CC(C)c1ccc(COc2ccc3c(c2)CCN3C(=O)CNCCC(=O)O)cc1OC(F)(F)F [Example 97, 3-[N-[2-[5-(4-Isopropyl-3-trifluoromethoxybenzyloxy)indolin-1-yl]-2-oxoethyl]amino]propionic acid hydrochloride] |  |  | 22.2 | 17.9 | 
10 |  | 4.5 | CN[C@H](CC(=O)O)C(=O)N1CCc2c1ccc(OCc1ccc(C3CCCC3)c(C(F)(F)F)c1)c2C [Example 129, 4-[5-[(4-Cyclopentyl-3-trifluoromethylphenyl)methoxy]-4-methylindolin-1-yl]-(3R)—(N-methylamino)-4-oxobutyric acid] |  |  | 18.2 | 17.7 | 
